Values of other authors as cited in patent publication US10485764B2, “Lyophilized pharmaceutical compositions” (Otsuka Pharmaceutical Co., Ltd., priority 2015, dated 2019).

Test system: HDAC
Conditions: in vitro or in vivo, from literature

| Compound | HDAC inhibition |
| --- | --- |
| C/C=C1\NC(=O)[C@H]2CSSCC/C=C/[C@H](CC(=O)N[C@H](C(C)C)C(=O)N2)OC(=O)[C@H](C(C)C)NC1=O [FR901228] | micromolar concentrations |
| depudecin | micromolar concentrations |
| O=C(/C=C/c1cccc(C(=O)NO)c1)NO [CBHA, m-carboxy-cinnamic acid bishydroxamic acid] | micromolar concentration or lower |
| trichostatin A [TSA] | potent inhibitor of mammalian HDAC |
